Data taken from patent US20240308988A1, “Method For Controlling Diamide Resistant Pests and Compounds Therefor” (priority 2021, published 2024).

Key:
[1] = test system: Plutella xylostella (Diamond back moth) ryanodine receptor, containing the G4946E resistance mutation; assay: In vitro calcium fluorescence assay (Fluo-8 NW, FDSS) in human embryonic kidney cells expressing the ryanodine receptor; type: cell-based; details: table, EC50 (compound)/EC50 (cyantraniliprole), G4946E RyR in HEK cells; for REC50 (Comparative compound): secondary amide analogue
Description: Human embryonic kidney cells expressing the Plutella xylostella (Diamond back moth) ryanodine receptor, containing the G4946E resistance mutation, are loaded with Fluo-8 No Wash (NW) calcium-sensitive dye which responds by fluorescence to a change in intracellular calcium (e.g. stimulated by activation of ryanodine receptor). Test compounds are added in 10 rates to a 384-well plate containing dye-loaded cells and the fluorescent signal is measured using the Hamamatsu FDSS (Functional Drug Screening system). Dose-response curves are plotted to estimate the EC50. EC50 are normalized against an in-assay reference standard (cyantraniliprole) to address inter-assay variability. The ratio for a given compound is then obtained by the following formula:
REC50=EC50 (compound)/EC50 (cyantraniliprole).

[2] = test system: Resistant Plutella xylostella R1 (multi-resistant larvae having the G4946E resistance mutation); assay: Resistant Plutella xylostella R1 (Diamond back moth) larvicide L3, feeding/contact, sprayed Chinese cabbage leaves; type: in vivo; details: Plutella xylostella, 96 h, read-out: control of the resistant strain of Plutella xylostella R1
Description: Resistant Plutella xylostella R1 (Diamond back moth) larvicide L3, feeding/contact Chinese cabbage plants were sprayed with diluted test solutions in an application chamber. Cut off leaves were placed into petri dishes with wetted filter paper and infested 1 day after application with 10 L3 multi-resistant Plutella xylostella larvae having the G4946E resistance mutation.
Samples were assessed 4 days after infestation for mortality and growth regulation.
Chlorantraniliprole was used as standard and a resistance factor of 146 was obtained for this strain.
Plutella xylostella resistant strain R1 originally collected from Taiwan in 2012 that carries the RyR mutation G4946E conferring resistance to diamides. The strain is reared on cabbage plants (Brassica aleracea) and selected approximately every two weeks with chlorantraniliprole.

Row | SMILES | REC50 (Comparative compound) [1] | pest or weed control at 50 µg/mL [2] | REC50 (Compound of the invention) [1]
1 | CNC(=O)c1cc(I)cc(F)c1NC(=O)c1cc(C(F)(F)F)nn1-c1ncccc1Cl | 3.99 |  | 
2 | CNC(=O)c1cc(Br)cc(Br)c1NC(=O)c1cc(C(F)(F)F)nn1-c1ncccc1Cl | 0.98 |  | 
3 | CNC(=O)c1cc(Cl)cc(Cl)c1NC(=O)c1cc(OC)nn1-c1ncccc1Cl | 1.20 |  | 
4 | CNC(=O)c1cc(C#N)cc(C)c1NC(=O)c1cc(Cn2nnc(-c3ccc(C(F)(F)F)cc3)n2)nn1-c1ncccc1Cl | 2.41 |  | 
5 | CNC(=O)c1cc(C#N)cc(C)c1NC(=O)c1cc(C(F)(F)F)nn1-c1ncccc1Cl | 3.65 |  | 
6 | Cc1cc(I)cc(C(=O)NC(C)C)c1NC(=O)c1cc(C(F)(F)F)nn1-c1ncccc1Cl | 3.13 |  | 
7 | CNC(=O)c1cc(I)cc(C)c1NC(=O)c1cc(Br)nn1-c1ncccc1Cl | 0.76 |  | 
8 | CNC(=O)c1cc(Cl)cc(Cl)c1NC(=O)c1cc(Br)nn1-c1ncc(Cl)cc1Cl | 0.47 |  | 
9 | Cc1cc(Br)cc(C(=O)NC(C)C)c1NC(=O)c1cc(C(F)(F)F)nn1-c1ncccc1Cl | 8.84 |  | 
10 | CNC(=O)c1cc(Br)cc(Cl)c1NC(=O)c1cc(OC)nn1-c1ncccc1Cl | 1.32 |  | 
11 | CNC(=O)c1cc(Br)cc(C)c1NC(=O)c1cc(OC)nn1-c1ncccc1Cl | 1.39 |  | 
12 | Cc1cc(Cl)cc(C(=O)NC(C)C)c1NC(=O)c1cc(COCc2ccc(Cl)cc2)nn1-c1ncccc1Cl | 1.07 |  | 
13 | COc1cc(C(=O)Nc2c(C)cc(Cl)cc2C(=O)NC(C)C)n(-c2ncccc2Cl)n1 | 2.57 |  | 
14 | CNC(=O)c1cc(Cl)cc(C)c1NC(=O)c1cc(C(F)(F)F)nn1-c1ncccc1Cl | 1.48 |  | 
15 | CNC(=O)c1cc(Cl)cc(C)c1NC(=O)c1cc(OC(F)F)nn1-c1ncccc1Cl | 0.58 |  | 
16 | CCc1cc(C(=O)Nc2c(C)cc(Cl)cc2C(=O)NC)n(-c2ncccc2Cl)n1 | 1.41 |  | 
17 | CNC(=O)c1cc(Cl)cc(C)c1NC(=O)c1cc(C2CC2)nn1-c1ncccc1Cl | 1.15 |  | 
18 | CNC(=O)c1cc(Cl)cc(C)c1NC(=O)c1cc(OCC(F)(F)C(F)(F)F)nn1-c1ncccc1Cl | 1.85 |  | 
19 | CNC(=O)c1cc(Cl)cc(C)c1NC(=O)c1cc(OCC(F)(F)F)nn1-c1ncccc1Cl | 1.29 |  | 
20 | Cc1cc(Cl)cc(C(N)=O)c1NC(=O)c1cc(Cn2nnc(C3CC3)n2)nn1-c1ncccc1Cl [Compound P2, N-(2-carbamoyl-4-chloro-6-methyl-phenyl)-2-(3-chloro-2-pyridyl)-5-[(5-cyclopropyltetrazol-2-yl)methyl]pyrazole-3-carboxamide] |  | ≥ 80% | 

Row | SMILES | REC50 (Comparative compound) [1] | pest or weed control at 50 µg/mL [2] | REC50 (Compound of the invention) [1]
21 | Cc1cc(Cl)cc(C(N)=O)c1NC(=O)c1cc(Cn2nnc(-c3ccc(C(F)(F)F)cc3)n2)nn1-c1ncccc1Cl [Compound P6, N-(2-carbamoyl-4-chloro-6-methyl-phenyl)-2-(3-chloro-2-pyridyl)-5-[[5-[4-(trifluoromethyl)phenyl]tetrazol-2-yl]methyl]pyrazole-3-carboxamide] |  | ≥ 80% | 
22 | Cc1cc(Cl)cc(C(N)=O)c1NC(=O)c1cc(OCC(F)(F)C(F)(F)F)nn1-c1ncccc1Cl [Compound P8, N-(2-carbamoyl-4-chloro-6-methyl-phenyl)-2-(3-chloro-2-pyridyl)-5-(2,2,3,3,3-pentafluoropropoxy)pyrazole-3-carboxamide] |  | ≥ 80% | 0.14
23 | COc1cc(C(=O)Nc2c(C)cc(Cl)cc2C(N)=O)n(-c2ncccc2Cl)n1 [Compound P9, N-(2-carbamoyl-4-chloro-6-methyl-phenyl)-2-(3-chloro-2-pyridyl)-5-methoxy-pyrazole-3-carboxamide] |  | ≥ 80% | 0.37
24 | COc1cc(C(=O)Nc2c(C)cc(I)cc2C(N)=O)n(-c2ncccc2Cl)n1 [Compound P10, N-(2-carbamoyl-4-iodo-6-methyl-phenyl)-2-(3-chloro-2-pyridyl)-5-methoxy-pyrazole-3-carboxamide] |  | ≥ 80% | 
25 | Cc1cc(Cl)cc(C(N)=O)c1NC(=O)c1cc(Cn2nnnc2-c2ccc(C(F)(F)F)cc2)nn1-c1ncccc1Cl [Compound P15, N-(2-carbamoyl-4-chloro-6-methyl-phenyl)-2-(3-chloro-2-pyridyl)-5-[[5-[4-(trifluoromethyl)phenyl]tetrazol-1-yl]methyl]pyrazole-3-carboxamide] |  | ≥ 80% | 
26 | Cc1cc(Cl)cc(C(N)=O)c1NC(=O)c1cc(Cn2ncc(C(F)(F)F)n2)nn1-c1ncccc1Cl [Compound P19, N-(2-carbamoyl-4-chloro-6-methyl-phenyl)-2-(3-chloro-2-pyridyl)-5-[[4-(trifluoromethyl)triazol-2-yl]methyl]pyrazole-3-carboxamide] |  | ≥ 80% | 
27 | Cc1cc(Cl)cc(C(N)=O)c1NC(=O)c1cc(Cn2cc(C(F)(F)F)nn2)nn1-c1ncccc1Cl [Compound P20, N-(2-carbamoyl-4-chloro-6-methyl-phenyl)-2-(3-chloro-2-pyridyl)-5-[[4-(trifluoromethyl)triazol-1-yl]methyl] pyrazole-3-carboxamide] |  | ≥ 80% | 
28 | Cc1cc(Cl)cc(C(N)=O)c1NC(=O)c1cc(OC(F)F)nn1-c1ncccc1Cl [Compound P21, N-(2-carbamoyl-4-chloro-6-methyl-phenyl)-2-(3-chloro-2-pyridyl)-5-(difluoromethoxy)pyrazole-3-carboxamide] |  | ≥ 80% | 0.25
29 | Cc1cc(Cl)cc(C(N)=O)c1NC(=O)c1cc(C(F)F)nn1-c1ncccc1Cl [Compound P22, N-(2-carbamoyl-4-chloro-6-methyl-phenyl)-2-(3-chloro-2-pyridyl)-5-(difluoromethyl)pyrazole-3-carboxamide] |  | ≥ 80% | 
30 | Cc1cc(Cl)cc(C(N)=O)c1NC(=O)c1cc(OCC(F)(F)F)nn1-c1ncccc1Cl [Compound P23, N-(2-carbamoyl-4-chloro-6-methyl-phenyl)-2-(3-chloro-2-pyridyl)-5-(2,2,2-trifluoroethoxy)pyrazole-3-carboxamide] |  | ≥ 80% | 0.17
31 | Cc1cc(Cl)cc(C(N)=O)c1NC(=O)c1cc(Br)nn1-c1ncccc1Cl [Compound P24, 5-bromo-N-(2-carbamoyl-4-chloro-6-methyl-phenyl)-2-(3-chloro-2-pyridyl)pyrazole-3-carboxamide] |  | ≥ 80% | 0.18
32 | Cc1cc(Cl)cc(C(N)=O)c1NC(=O)c1cc(C(F)(F)F)nn1-c1ncccc1Cl [Compound P25, N-(2-carbamoyl-4-chloro-6-methyl-phenyl)-2-(3-chloro-2-pyridyl)-5-(trifluoromethyl)pyrazole-3-carboxamide] |  | ≥ 80% | 0.18
33 | Cc1cc(C#N)cc(C(N)=O)c1NC(=O)c1cc(C(F)F)nn1-c1ncccc1Cl [Compound P28, N-(2-carbamoyl-4-cyano-6-methyl-phenyl)-2-(3-chloro-2-pyridyl)-5-(difluoromethyl)pyrazole-3-carboxamide] |  | ≥ 80% | 
34 | Cc1cc(C#N)cc(C(N)=O)c1NC(=O)c1cc(OCC(F)(F)F)nn1-c1ncccc1Cl [Compound P32, N-(2-carbamoyl-4-cyano-6-methyl-phenyl)-2-(3-chloro-2-pyridyl)-5-(2,2,2-trifluoroethoxy)pyrazole-3-carboxamide] |  | ≥ 80% | 
35 | NC(=O)c1cc(Br)cc(Cl)c1NC(=O)c1cc(Cn2nnc(-c3ccc(C(F)(F)F)cc3)n2)nn1-c1ncccc1Cl [Compound P44, N-(4-bromo-2-carbamoyl-6-chloro-phenyl)-2-(3-chloro-2-pyridyl)-5-[[5-[4-(trifluoromethyl)phenyl]tetrazol-2-yl]methyl]pyrazole-3-carboxamide] |  | ≥ 80% | 
36 | NC(=O)c1cc(Cl)cc(Br)c1NC(=O)c1cc(Cn2nnc(-c3ccc(C(F)(F)F)cc3)n2)nn1-c1ncccc1Cl [Compound P57, N-(2-bromo-6-carbamoyl-4-chloro-phenyl)-2-(3-chloro-2-pyridyl)-5-[[5-[4-(trifluoromethyl)phenyl]tetrazol-2-yl]methyl]pyrazole-3-carboxamide] |  | ≥ 80% | 
37 | Cc1cc(I)cc(C(N)=O)c1NC(=O)c1cc(Cn2nnc(-c3ccc(C(F)(F)F)cc3)n2)nn1-c1ncccc1Cl [Compound P62, N-(2-carbamoyl-4-iodo-6-methyl-phenyl)-2-(3-chloro-2-pyridyl)-5-[[5-[4-(trifluoromethyl)phenyl]tetrazol-2-yl]methyl]pyrazole-3-carboxamide] |  | ≥ 80% | 
38 | CNC(=O)c1cc(C#N)cc(C)c1NC(=O)c1cc(Br)nn1-c1ncccc1Cl [Cyantraniliprole, cyantraniliprole, reference compound] | 1.00 |  | 
39 | CC(NC(=O)c1cc(Cl)cc(Br)c1NC(=O)c1cc(Br)nn1-c1ncccc1Cl)C1CC1 (stereo not drawn) [Cyclaniliprole, cyclaniliprole, reference compound] | 4.70 |  | 
